Experimental data reported in patent publication US8501953B2, “PKM2 modulators for use in the treatment of cancer” (Agios Pharmaceuticals, Inc, priority 2009, dated 2013).

The compounds below were run against PKM2 (Homo sapiens, UniProt P14618) (assay: PKM2 Assay (activation; LDH-coupled, NADH absorbance at 340 nm)). Settings: PKM2 50 ng/well, ADP 0.7 mM, PEP 0.15 mM, no FBP in Reaction Mix.
Assay type: biochemical
Method: • PKM2 stock enzyme solution was diluted in Reaction Buffer • 2 μL of compound was added into each well first, and then 180 μL of the Reaction Mix was added. • Reaction mixture with compound (without ADP) were incubated for 30 minutes at 4° C. • Plates were re-equilibrated to room temperature prior to adding 20 μL ADP to initiate the reaction. • Reaction progress was measured as changes in absorbance at 340 nm wavelength at room temperature (25° C.) Reaction Mix: PKM2 (50 ng/well), ADP (0.7 mM), PEP (0.15 mM), NADH (180 μM), LDH (2 units) in Reaction Buffer Reaction Buffer: 100 mM KCl, 50 mM Tris pH 7.5, 5 mM MgCl2, 1 mM DTT, 0.03% BSA.

PKM2, sequence (P14618 whole entry): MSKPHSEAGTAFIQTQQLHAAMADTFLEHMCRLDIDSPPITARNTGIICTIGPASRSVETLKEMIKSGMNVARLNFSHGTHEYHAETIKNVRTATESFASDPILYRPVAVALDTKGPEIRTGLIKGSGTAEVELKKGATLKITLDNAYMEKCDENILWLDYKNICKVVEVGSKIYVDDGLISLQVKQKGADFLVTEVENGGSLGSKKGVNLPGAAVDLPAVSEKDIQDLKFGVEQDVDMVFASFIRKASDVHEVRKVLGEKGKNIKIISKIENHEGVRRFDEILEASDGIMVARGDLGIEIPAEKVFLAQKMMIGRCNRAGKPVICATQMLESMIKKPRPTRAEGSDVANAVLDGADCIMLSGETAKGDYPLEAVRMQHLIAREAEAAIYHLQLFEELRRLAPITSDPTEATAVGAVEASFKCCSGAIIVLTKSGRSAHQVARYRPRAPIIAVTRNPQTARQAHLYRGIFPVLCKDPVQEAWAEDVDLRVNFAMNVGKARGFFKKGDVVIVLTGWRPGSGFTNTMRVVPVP

Compound | AC50
O=c1[nH]c2cc(NS(=O)(=O)c3cccs3)ccc2o1 | 10 to 50 µM
COc1ccc(Cl)cc1S(=O)(=O)Nc1ccc2oc(=O)[nH]c2c1 | 10 to 50 µM
COc1ccc(S(=O)(=O)N2CCCN(S(=O)(=O)c3ccc4c(c3)sc(=O)n4C)CC2)cc1 | 1 to 10 µM
Cn1c(=O)oc2cc(S(=O)(=O)Nc3ccccn3)ccc21 | 10 to 50 µM
Cn1c(=O)sc2cc(NS(=O)(=O)c3ccc(F)cc3)ccc21 | 10 to 50 µM
COCCn1c(=O)oc2cc(S(=O)(=O)Nc3cccc(Cl)c3)ccc21 | < 1 µM
O=c1oc2cc(S(=O)(=O)Nc3ccc(F)cc3)ccc2n1Cc1ccccc1 | 1 to 10 µM
CCn1c(=O)sc2ccc(NS(=O)(=O)c3c(F)cccc3F)cc21 | 1 to 10 µM
Cn1c(=O)sc2cc(S(=O)(=O)N3CCN(S(=O)(=O)c4ccccc4)CC3)ccc21 | 1 to 10 µM
CCn1c(=O)oc2cc(S(=O)(=O)Nc3ccccc3Cl)ccc21 | 1 to 10 µM
O=c1[nH]c2cc(NS(=O)(=O)c3cccs3)ccc2s1 | 10 to 50 µM
COc1ccc(Cl)cc1S(=O)(=O)Nc1ccc2sc(=O)n(C)c2c1 | 10 to 50 µM
Cc1cc2c(cc1S(=O)(=O)N1CCN(c3ccc(C(F)(F)F)cn3)CC1)oc(=O)n2C | 1 to 10 µM
Cc1cc2c(cc1S(=O)(=O)N1CCN(C(=O)COc3ccccc3)CC1)oc(=O)n2C | > 100 µM
Cc1cc(C)cc(NS(=O)(=O)c2ccc3c(c2)oc(=O)n3CCc2ccccc2)c1 | 1 to 10 µM
COc1cccc(F)c1S(=O)(=O)N(C)c1ccc2sc(=O)n(C)c2c1 | 10 to 50 µM
Cc1cc2sc(=O)sc2cc1S(=O)(=O)Nc1ncc(C(F)(F)F)cc1Cl | 1 to 10 µM
COc1ccc(S(=O)(=O)Nc2cc3c(cc2Cl)oc(=O)n3C)cc1OC | 10 to 50 µM
Cc1cc2oc(=O)n(C)c2cc1S(=O)(=O)N1CCCN(c2ccc(C(F)(F)F)cn2)CC1 | 1 to 10 µM
Cn1c(=O)oc2cc(F)c(S(=O)(=O)N3CCN(S(=O)(=O)c4ccc5c(c4)OCCO5)CC3)cc21 | < 1 µM
Cn1c(=O)sc2cc(S(=O)(=O)Nc3ccc4ncccc4c3)ccc21 | 1 to 10 µM
COc1ccc(Cl)cc1S(=O)(=O)Nc1ccc2c(c1)sc(=O)n2C | 10 to 50 µM
Cn1c(=O)oc2cc(S(=O)(=O)Nc3ccc4c(c3)OCO4)ccc21 | < 1 µM
Cn1c(=O)oc2cc(S(=O)(=O)NC(C)(C)C)ccc21 | > 100 µM

Compound | AC50
Cn1c(=O)oc2cc(S(=O)(=O)Nc3cccc(Cl)c3)ccc21 | < 1 µM
Cc1cc2c(cc1S(=O)(=O)N1CCN(Cc3ccccc3)CC1)oc(=O)n2C | 1 to 10 µM
Cc1cc2c(cc1S(=O)(=O)N1CCCN(c3ccc(C(F)(F)F)cn3)CC1)oc(=O)n2C | 1 to 10 µM
COc1ccc(Cl)cc1NS(=O)(=O)c1ccc2sc(=O)sc2c1 | 10 to 50 µM
Cn1c(=O)oc2cc(S(=O)(=O)Nc3ccc(OC(F)(F)F)c(Cl)c3)ccc21 | 1 to 10 µM
COc1ccc(C)cc1S(=O)(=O)Nc1ccc2oc(=O)[nH]c2c1 | 10 to 50 µM
Cn1c(=O)sc2cc(S(=O)(=O)N3CCCN(S(=O)(=O)c4c(F)cccc4F)CC3)ccc21 | 1 to 10 µM
Cn1c(=O)oc2cc(S(=O)(=O)Nc3ccc(Cl)cc3)ccc21 | 1 to 10 µM
Cn1c(=O)oc2cc(S(=O)(=O)Nc3ccc4ncccc4c3)ccc21 | 1 to 10 µM
Cn1c(=O)oc2cc(S(=O)(=O)N3CCN(S(=O)(=O)c4ccc5ccccc5c4)CC3)ccc21 | < 1 µM
O=c1[nH]c2cc(NS(=O)(=O)c3c(F)cccc3F)ccc2s1 | 10 to 50 µM
Cc1ccc(COC(=O)N2CCN(S(=O)(=O)c3cc4oc(=O)n(C)c4cc3C)CC2)cc1 | 1 to 10 µM
Cn1c(=O)sc2cc(S(=O)(=O)Nc3cccc4ncccc34)ccc21 | 1 to 10 µM
Cc1cc2sc(=O)sc2cc1S(=O)(=O)Nc1ccc(Cl)cc1 | 1 to 10 µM
COc1ccc(Cl)cc1S(=O)(=O)Nc1ccc2sc(=O)[nH]c2c1 | 1 to 10 µM
CCn1c(=O)sc2ccc(NS(=O)(=O)c3cc(Cl)ccc3OC)cc21 | 1 to 10 µM
Cc1cc(S(=O)(=O)Nc2ccc(F)c(Cl)c2)cc2oc(=O)n(CCN(C)C)c12 | < 1 µM
CCn1c(=O)oc2cc(S(=O)(=O)Nc3ccc(F)cc3)ccc21 | 1 to 10 µM
Cn1c(=O)oc2cc(S(=O)(=O)Nc3ccc4ccccc4c3)ccc21 | 1 to 10 µM
O=c1sc2ccc(S(=O)(=O)Nc3ccc(F)cc3)cc2s1 | 10 to 50 µM
CCc1cccc(NS(=O)(=O)c2ccc3c(c2)oc(=O)n3C)c1 | < 1 µM
Cc1cc(NS(=O)(=O)c2cc(CN3CCCCC3)c3c(c2)oc(=O)n3C)ccc1F | 1 to 10 µM
Cc1cc2sc(=O)sc2cc1S(=O)(=O)Nc1ccccc1 | < 1 µM
Cn1c(=O)sc2cc(S(=O)(=O)Nc3cccc(Cl)c3)ccc21 | < 1 µM

The remaining lines, values ahead:

AC50 | Compound
10 to 50 µM | Cc1cc2oc(=O)n(C)c2cc1NS(=O)(=O)c1ccc(F)cc1
< 1 µM | Cn1c(=O)oc2cc(S(=O)(=O)Nc3ccc(F)c(Cl)c3)ccc21
< 1 µM | Cc1cc(C)cc(NS(=O)(=O)c2cc3c(cc2F)oc(=O)n3C)c1
< 1 µM | Cc1cc(S(=O)(=O)Nc2ccc(F)c(Cl)c2)cc2oc(=O)n(C)c12
10 to 50 µM | Cc1cc2oc(=O)n(C)c2cc1NS(=O)(=O)c1cc(Cl)cc(Cl)c1
< 1 µM | Cc1cc(C)cc(NS(=O)(=O)c2cc3oc(=O)n(C)c3cc2C)c1
10 to 50 µM | CCn1c(=O)oc2cc(C)c(S(=O)(=O)Nc3ccccc3Cl)cc21
10 to 50 µM | CCn1c(=O)oc2cc(C)c(S(=O)(=O)Nc3cc(Cl)ccc3OC)cc21
10 to 50 µM | Cc1cc2oc(=O)n(C)c2cc1NS(=O)(=O)c1ccccc1Cl
10 to 50 µM | CCn1c(=O)oc2cc(Cl)c(S(=O)(=O)Nc3ccc(F)cc3)cc21
> 100 µM | Cn1c(=O)oc2cc(F)c(NS(=O)(=O)c3cccs3)cc21
< 1 µM | COc1ccc(Cl)cc1S(=O)(=O)Nc1cc2c(cc1C)oc(=O)n2C [drawing 47]
< 1 µM | Cc1cc(C)cc(NS(=O)(=O)c2cc3c(cc2C)oc(=O)n3C)c1
1 to 10 µM | Cn1c(=O)oc2cc(Cl)c(S(=O)(=O)Nc3ccccc3Cl)cc21
1 to 10 µM | Cn1c(=O)oc2cc(F)c(S(=O)(=O)Nc3ccc(Cl)cc3)cc21
1 to 10 µM | Cc1cc2c(cc1S(=O)(=O)Nc1ccc(F)cc1)oc(=O)n2C
10 to 50 µM | Cn1c(=O)oc2cc(Cl)c(NS(=O)(=O)c3cccc(Cl)c3)cc21
10 to 50 µM | Cn1c(=O)oc2cc(Cl)c(S(=O)(=O)Nc3ccc(Cl)cc3)cc21
1 to 10 µM | Cc1cc2oc(=O)n(C)c2cc1S(=O)(=O)Nc1ccc(OC(F)(F)F)c(Cl)c1
1 to 10 µM | Cc1cc2oc(=O)n(C)c2cc1S(=O)(=O)Nc1cc(F)cc(F)c1
1 to 10 µM | Cn1c(=O)oc2cc(S(=O)(=O)Nc3c(F)cccc3F)ccc21

AC50 | Compound
1 to 10 µM | Cn1c(=O)oc2cc(F)c(S(=O)(=O)Nc3ccc(F)cc3)cc21
< 1 µM | Cc1cc(S(=O)(=O)Nc2cccc(Cl)c2)cc2oc(=O)n(C)c12
> 100 µM | CC(=O)Nc1ccc(NS(=O)(=O)c2cc3c(cc2C)oc(=O)n3C)cc1
< 1 µM | Cc1cc2oc(=O)n(C)c2cc1S(=O)(=O)Nc1ccc(F)cc1
> 100 µM | Cc1cc2oc(=O)n(C)c2cc1S(=O)(=O)Nc1c(F)cccc1F
10 to 50 µM | COc1ccc(Cl)cc1S(=O)(=O)Nc1cc2c(cc1F)oc(=O)n2C
< 1 µM | Cc1cc2oc(=O)n(C)c2cc1S(=O)(=O)Nc1ccc2c(c1)OCO2
1 to 10 µM | Cc1cc2oc(=O)n(C)c2cc1S(=O)(=O)Nc1cc(F)cc(Cl)c1
1 to 10 µM | COc1ccc(Cl)cc1NS(=O)(=O)c1cc2c(cc1C)oc(=O)n2C
< 1 µM | Cc1cc2oc(=O)n(C)c2cc1S(=O)(=O)Nc1ccc(F)c(Cl)c1
1 to 10 µM | Cn1c(=O)oc2cc(Cl)c(S(=O)(=O)Nc3ccccc3F)cc21
1 to 10 µM | CCn1c(=O)oc2cc(S(=O)(=O)Nc3cc(Cl)ccc3OC)c(C)cc21
1 to 10 µM | COc1ccc(Cl)cc1NS(=O)(=O)c1cc2oc(=O)n(C)c2cc1C
10 to 50 µM | CCn1c(=O)oc2cc(S(=O)(=O)Nc3ccc(F)cc3)c(C)cc21
1 to 10 µM | Cn1c(=O)oc2cc(S(=O)(=O)Nc3ccc(Cl)c(Cl)c3)ccc21
< 1 µM | Cn1c(=O)oc2cc(S(=O)(=O)Nc3ccc(F)c(F)c3)ccc21
< 1 µM | Cc1cc(NS(=O)(=O)c2ccc3c(c2)oc(=O)n3C)ccc1Cl
10 to 50 µM | Cc1cc2c(cc1NS(=O)(=O)c1cccs1)oc(=O)n2C
< 1 µM | CCc1cccc(NS(=O)(=O)c2cc3c(cc2C)oc(=O)n3C)c1
1 to 10 µM | CCn1c(=O)oc2cc(S(=O)(=O)Nc3ccccc3Cl)c(C)cc21
> 100 µM | Cn1c(=O)oc2cc(F)c(S(=O)(=O)Nc3c(F)cccc3F)cc21
